Assays:
c-Myc protein = target: T1, c-Myc protein (Homo sapiens, UniProt P01106); assay: Ability of compounds to degrade c-Myc protein in HL60 cells (ELISA); format: cell-based; settings: HL-60, 1 μM compound, 24 h, read-out: HL60 cells Protein degradation rate (1 μM)
T1 construct: endogenous in cells; host or cells: HL60 cells

HL60 cells = assay: Anti-proliferation ability of compounds on HL60 cells (CTG); format: cell-based, human; settings: Homo sapiens, HL-60, 72 h, 3 days, CellTiter-Glo, read-out: HL60 cells Proliferation inhibitory activity
In short: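 Proliferation inhibition IC50 derived from CellTiter-Glo luminescence after 3-day compound treatment of HL60 cells plated at 20000 per well, against 0.1% DMSO controls.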

T1 sequence (P01106 whole entry): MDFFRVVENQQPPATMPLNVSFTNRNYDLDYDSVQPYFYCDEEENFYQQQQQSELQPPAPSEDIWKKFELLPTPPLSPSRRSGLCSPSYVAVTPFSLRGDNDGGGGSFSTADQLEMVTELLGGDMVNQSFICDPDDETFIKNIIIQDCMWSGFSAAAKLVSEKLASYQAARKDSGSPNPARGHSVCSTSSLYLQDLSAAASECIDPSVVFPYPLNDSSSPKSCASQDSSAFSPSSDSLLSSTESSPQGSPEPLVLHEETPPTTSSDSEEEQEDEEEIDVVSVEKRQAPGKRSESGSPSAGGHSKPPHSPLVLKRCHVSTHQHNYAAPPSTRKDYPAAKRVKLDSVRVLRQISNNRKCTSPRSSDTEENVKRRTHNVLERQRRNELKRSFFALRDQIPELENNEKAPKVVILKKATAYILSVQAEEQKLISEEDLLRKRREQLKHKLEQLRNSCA

| Compound | inhibition at 1 µM (c-Myc protein) | IC50 (HL60 cells) |
| --- | --- | --- |
| O=C1CCC(N2C(=O)c3ccc(CNCc4ccc(C(=O)NCCc5cccc6ccccc56)cc4)cc3C2=O)C(=O)N1 (stereo not shown) [A179] | 60 to 90% | 14 ± 4.1 nM |
| O=C1CCC(N2C(=O)c3ccc(CNCc4ccc(C(=O)NCCn5c6ccccc6c6cccnc65)cc4)cc3C2=O)C(=O)N1 (stereo not shown) [A180] | 60 to 90% | 133 ± 48.4 nM |
| CN(CCc1cccc2ccccc12)Cc1ccc(CNCc2ccc3c(c2)C(=O)N(C2CCC(=O)NC2=O)C3=O)cc1 (stereo not shown) [A181] | 60 to 90% | 2 ± 1 nM |
| CN(CCn1c2ccccc2c2cccnc21)Cc1ccc(CNCc2ccc3c(c2)C(=O)N(C2CCC(=O)NC2=O)C3=O)cc1 (stereo not shown) [A182] | 60 to 90% | 1.1 ± 0.8 nM |
| CN(CCc1cccc2cccnc12)Cc1ccc(CNCc2ccc3c(c2)C(=O)N(C2CCC(=O)NC2=O)C3=O)cc1 (stereo not shown) [A183] | 60 to 90% | 16.7 ± 2.5 nM |
| CN(CCc1ccc(Cl)c(Cl)c1)Cc1ccc(CNCc2ccc3c(c2)C(=O)N(C2CCC(=O)NC2=O)C3=O)cc1 (stereo not shown) [A184] | 60 to 90% | 11.9 ± 5.5 nM |
| CN(CCc1ccc(Cl)cc1Cl)Cc1ccc(CNCc2ccc3c(c2)C(=O)N(C2CCC(=O)NC2=O)C3=O)cc1 (stereo not shown) [A185] | 60 to 90% | 7.5 ± 1.1 nM |
| O=C(Cc1nccc2ccccc12)NCc1ccc(CNCc2ccc3c(c2)C(=O)N(C2CCC(=O)NC2=O)C3=O)cc1 (stereo not shown) [A186] | 60 to 90% | 32.1 ± 1.3 nM |
| O=C(Cc1cccc2cccnc12)NCc1ccc(CNCc2ccc3c(c2)C(=O)N(C2CCC(=O)NC2=O)C3=O)cc1 (stereo not shown) [A187] | 60 to 90% | 9.2 ± 0.5 nM |
| CN(Cc1ccc(CNC(=O)Cc2nccc3ccccc23)cc1)Cc1ccc2c(c1)C(=O)N(C1CCC(=O)NC1=O)C2=O (stereo not shown) [A188] | 30 to 60% | 279 ± 33.8 nM |
| O=C(Cc1cccc2ccccc12)NCc1ccc(CNCc2ccc3c(c2)C(=O)N(C2CCC(=O)NC2=O)C3=O)c(F)c1 (stereo not shown) [A189] | 60 to 90% | 5.6 ± 1 nM |
| O=C(Cn1c2ccccc2c2cccnc21)NCc1ccc(CNCc2ccc3c(c2)C(=O)N(C2CCC(=O)NC2=O)C3=O)c(F)c1 (stereo not shown) [A190] | 60 to 90% | 1.7 ± 0.6 nM |
| O=C(Cc1cccc2ccccc12)NCc1ccc(COCc2ccc3c(c2)C(=O)N(C2CCC(=O)NC2=O)C3=O)cc1 (stereo not shown) [A191] | 60 to 90% | 16.9 ± 2.2 nM |
| O=C(Cn1c2ccccc2c2cccnc21)NCc1ccc(COCc2ccc3c(c2)C(=O)N(C2CCC(=O)NC2=O)C3=O)cc1 (stereo not shown) [A192] | 60 to 90% | 7.7 ± 2.1 nM |
| O=C(Cc1cccc2ccccc12)NCc1ccc(CNCc2ccc3c(c2)CN(C2CCC(=O)NC2=O)C3=O)cc1 (stereo not shown) [A193] | 60 to 90% | 0.6 ± 0.1 nM |
| O=C(Cn1c2ccccc2c2cccnc21)NCc1ccc(CNCc2ccc3c(c2)CN(C2CCC(=O)NC2=O)C3=O)cc1 (stereo not shown) [A194] | 60 to 90% | 0.14 ± 0.01 nM |
| O=C(Cc1c(F)ccc2ccccc12)NCc1ccc(CNCc2ccc3c(c2)CN(C2CCC(=O)NC2=O)C3=O)cc1 (stereo not shown) [A195] | 60 to 90% | 1.4 ± 0.01 nM |
| O=C(Cc1cccc2ccccc12)NCc1ccc(CNCc2ccc3c(c2)CN(C2CCC(=O)NC2=O)C3=O)c(F)c1 (stereo not shown) [A196] | 60 to 90% | 0.5 ± 0.1 nM |
| O=C1CCC(N2Cc3cc(NC(=O)C[C@H]4CC[C@H](NC(=O)NCc5cccc6ccccc56)CC4)ccc3C2=O)C(=O)N1 (stereo partly shown) [A199] | 60 to 90% | 3.3 ± 0.6 nM |
| O=C(CN1CCCc2ccccc21)NCc1ccc(CNC(=O)c2ccc3c(c2)CN(C2CCC(=O)NC2=O)C3=O)cc1 (stereo not shown) [A200] | 60 to 90% | 2.5 ± 1 nM |
| O=C(CN1CCCc2ccccc21)NCc1ccc(CC(=O)Nc2ccc3c(c2)CN(C2CCC(=O)NC2=O)C3=O)cc1 (stereo not shown) [A201] | 60 to 90% | 2 ± 0.9 nM |
| O=C(CN1CCc2cccnc21)NCc1ccc(CNC(=O)c2ccc3c(c2)CN(C2CCC(=O)NC2=O)C3=O)cc1 (stereo not shown) [A203] | 60 to 90% | 6.6 ± 0.8 nM |
| CN(CCc1cccc2ccccc12)Cc1ccc(CC(=O)Nc2ccc3c(c2)CN(C2CCC(=O)NC2=O)C3=O)cc1 (stereo not shown) [A205] | 60 to 90% | 0.2 ± 0.1 nM |
| O=C(Cn1c2ccccc2c2cccnc21)NCc1ccc(CNC(=O)c2ccc3c(c2)CN(C2CCC(=O)NC2=O)C3=O)cc1OC(F)(F)F (stereo not shown) [A208] | 60 to 90% | 0.5 nM |
| O=C1CCC(N2Cc3cc(C(=O)NCc4ccc(CNc5nccc(-c6cccc7ccccc67)n5)cc4)ccc3C2=O)C(=O)N1 (stereo not shown) [A220] | 60 to 90% | 1.2 ± 0.1 nM |
| O=C(Cn1c2ccccc2c2cccnc21)NCc1ccc(CNC(=O)c2ccc3c(c2)CN([C@H]2CCC(=O)NC2=O)C3=O)cc1 [A224] | 60 to 90% | 1.7 ± 1.3 nM |
| O=C(Cn1c2ccccc2c2cccnc21)NCc1ccc(CNC(=O)c2ccc3c(c2)CN([C@@H]2CCC(=O)NC2=O)C3=O)cc1 [A225] | 60 to 90% | 1.3 ± 0.2 nM |
| NCC(=O)OCN1C(=O)CCC(N2Cc3cc(C(=O)NCc4ccc(CNC(=O)Cn5c6ccccc6c6cccnc65)cc4)ccc3C2=O)C1=O (stereo not shown) [A227] | 30 to 60% | 0.6 ± 0.1 nM |
| O=C(Cn1c2ccccc2c2cccnc21)NCc1ccc(CNC(=O)c2ccc3c(c2)CN(C2CCC(=O)N(COP(=O)(O)O)C2=O)C3=O)cc1 (stereo not shown) [A228] | 60 to 90% | 5 ± 0.2 nM |
